Read-outs that look alike come from different tables or passages of the source.
System: HCT116 line (human colon cancer cell line)
Experiment: Antiproliferative (cytotoxic) activity on HCT116 line, ATPLite cell viability, 72 hours
Assay type: cell-based
Conditions: read-out: HCT116 (EC50)
Experimental: 2.1. Antiproliferative Activity of the Compounds According to the Invention (IC50 in M)
Culture of Lines and Measurement of Cell Viability:
The HCT116 line (ATCC, CCL-247) derived from colon cancer was cultured in MEM (Minimum Essential Medium Eagle) supplemented with 2 mM L-glutamine (Sigma, G7513), 5% fetal calf serum (Sigma, F7524) and antibiotics (Sigma, A59-55). The protocol for determining cytotoxic activity consists in seeding cells on 96-well plates (Perkin Elmer, 6005668) at a density of 1500 cells per well. After 24 hours of incubation, the test compound is applied in each well, using serial dilutions in the solvent dimethylsulfoxide (DMSO) (Sigma, D8418), from 10 mM stock solutions in 100% DMSO. Each dilution was added to the cells 24 hours after seeding. Under these conditions, the final solvent concentration is 0.1% DMSO. A reading of cell proliferation was carried out 72 hours after addition of the products with the ATPLite™ kit (Perkin Elmer, 6016947) and according to the manufacturer's recommendations. The analysis of the proliferation results was carried out by comparison with conditions where only the carrier solvent (culture medium, 0.1% DMSO) was added to the cells. The dose-response curves obtained were analyzed using the PRISM 4.03 software (GraphPad Software Inc.), or by an equivalent analytical method, to determine the concentration of each compound which inhibits 50% of cell proliferation (EC50).
By way of example, the cytotoxic properties of several compounds of the invention evaluated on the HCT116 line (human colon cancer cell line) are reported in Table 1.

[1] = HCT-116, HCT116, 72 hours after addition, ATPLite

Row | Structure (SMILES) | EC50 [1] | EC50 (HCT-116, 72 h)
1 | CN[C@H]1[C@@H](O)[C@@]2(O)c3c(OC)cc(OC)cc3O[C@@]2(c2ccc(OC)cc2)[C@@H]1c1ccccc1 (racemic) [Compound 15, rac-(1R,2R,3R,3aR,8bS)-6,8-dimethoxy-3a-(4-methoxyphenyl)-2-(methylamino)-3-phenyl-1,2,3,3a-tetrahydro-8bH-cyclopenta[b]benzofuran-1,8b-diol] | 3.83 nM | –
2 | COC(=O)[C@H]1[C@@H](O)[C@@]2(O)c3c(OC)cc(OCCCCN)cc3O[C@@]2(c2ccc(OC)cc2)[C@@H]1c1ccccc1 [Compound 50, methyl (1R,2R,3S,3aR,8bS)-6-(4-aminobutoxy)-1,8b-dihydroxy-8-methoxy-3a-(4-methoxyphenyl)-3-phenyl-2,3,3a,8b-tetrahydro-1H-cyclopenta[b]benzofuran-2-carboxylate] | – | 1.22 nM
3 | COC(=O)[C@H]1[C@@H](O)[C@@]2(O)c3c(OC)cc(OCCCCN)cc3O[C@@]2(c2ccc(OC)cc2)[C@@H]1c1ccccc1 (racemic) [Compound 8, rac-(1R,2R,3S,3aR,8bS)-methyl 6-(4-aminobutoxy)-1,8b-dihydroxy-8-methoxy-3a-(4-methoxyphenyl)-3-phenyl-2,3,3a,8b-tetrahydro-1H-cyclopenta[b]benzofuran-2-carboxylate] | – | 2.61 nM
4 | COC(=O)[C@H]1[C@@H](O)[C@@]2(O)c3c(OC)cc(OCCCCN(C)C)cc3O[C@@]2(c2ccc(OC)cc2)[C@@H]1c1ccccc1 (racemic) [Compound 52, rac-methyl (1R,2R,3S,3aR,8bS)-6-(4-(dimethylamino)butoxy)-1,8b-dihydroxy-8-methoxy-3a-(4-methoxyphenyl)-3-phenyl-2,3,3a,8b-tetrahydro-1H-cyclopenta[b]benzofuran-2-carboxylate] | 4.9 nM | –
5 | COc1ccc([C@@]23Oc4cc(OC)cc(OC)c4[C@]2(O)[C@@H]2OC(=O)N[C@@H]2[C@H]3c2ccccc2)cc1 (racemic) [Compound 40, rac-(3aR,4R,4aR,9bS,9cR)-9b-hydroxy-7,9-dimethoxy-4a-(4-methoxyphenyl)-4-phenyl-3,3a,4,4a,9b,9c-hexahydro-2H-benzofuro[3′,2′:3,4]cyclopenta[1,2-d]oxazol-2-one] | 2.52 nM | –
6 | COc1ccc([C@@]23Oc4cc(OC)cc(OC)c4[C@]2(O)[C@@H]2OC(N)=N[C@@H]2[C@H]3c2ccccc2)cc1 (racemic) [Compound 47, rac-(3aR,4R,4aR,9bS,9cR)-2-amino-7,9-dimethoxy-4a-(4-methoxyphenyl)-4-phenyl-4,4a,9b,9c-tetrahydro-3aH-benzofuro[3′,2′:3,4]cyclopenta[1,2-d]oxazol-9b-ol] | 1.1 nM | –
7 | COc1ccc([C@@]23Oc4cc(OCCCCO)cc(OC)c4[C@]2(O)[C@@H]2OC(=O)N[C@@H]2[C@H]3c2ccccc2)cc1 (racemic) [Compound 42, rac-(3aR,4R,4aR,9bS,9cR)-9b-hydroxy-7-(4-hydroxybutoxy)-9-methoxy-4a-(4-methoxyphenyl)-4-phenyl-3,3a,4,4a,9b,9c-hexahydro-2H-benzofuro[3′,2′:3,4]cyclopenta[1,2-d]oxazol-2-one] | 2.16 nM | –
8 | COc1ccc([C@@]23Oc4cc(OCCCC(O)CO)cc(OC)c4[C@]2(O)[C@@H]2OC(=O)N[C@@H]2[C@H]3c2ccccc2)cc1 (mixture of isomers) [Compound 41, rac-(3aR,4R,4aR,9bS,9cR)-7-((4,5-dihydroxypentyl)oxy)-9b-hydroxy-9-methoxy-4a-(4-methoxyphenyl)-4-phenyl-3,3a,4,4a,9b,9c-hexahydro-2H-benzofuro[3′,2′:3,4]cyclopenta[1,2-d]oxazol-2-one] | 4.2 nM | –
